{
  "source": "patent US9687479B2",
  "about": "“Multisubstituted aromatic compounds as serine protease inhibitors” (VERSEON CORPORATION, priority 2013, dated 2017)",
  "target": "Human thrombin (Homo sapiens (Human), UniProt P00734)",
  "experiment": "Thrombin protease activity inhibition assay (chromogenic substrate S-2238)",
  "format": "biochemical",
  "details": "3 nM thrombin, 125 μM S-2238, 10 min pre-incubation, RT",
  "procedure,_shortened": "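Ten-point, three-fold serial dilutions of compound tested against 3 nM enzyme at RT in Tris buffer (0.05 M, pH 7.4) with 0.015 M NaCl and 0.01% PEG-8000.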",
  "data": [
    {"smiles": "CC(C)(C)C(=O)n1nc(-c2cccn(Cc3ccccc3Cl)c2=O)cc1NCc1ccc(Cl)s1", "note": "[Cmpd 27, 1-[(2-chlorophenyl)methyl]-3-(5-[(5-chlorothiophen-2-yl)methyl]amino-1-(2,2-dimethylpropanoyl)-1H-pyrazol-3-yl)-1,2-dihydropyridin-2-one]", "values": [
      {"measurement": "IC50", "result": "< 100", "unit": "nM"}
    ]},
    {"smiles": "O=C(c1ccc(N2CCOCC2)cc1)n1nc(-c2cccn(Cc3ccccn3)c2=O)cc1NCc1ccc(Cl)s1", "note": "[Cmpd 212, 3-(5-[(5-chlorothiophen-2-yl)methyl]amino-1-[4-(morpholin-4-yl)phenyl]carbonyl-1H-pyrazol-3-yl)-1-(pyridin-2-ylmethyl)-1,2-dihydropyridin-2-one]", "values": [
      {"measurement": "IC50", "result": "< 100", "unit": "nM"}
    ]},
    {"smiles": "O=C(c1cccc2c1OCCO2)n1nc(-c2cccn(Cc3ccccc3)c2=O)cc1NCc1ccc(Cl)s1", "note": "[Cmpd 45, 1-benzyl-3-(5-[(5-chlorothiophen-2-yl)methyl]amino-1-[(2,3-dihydro-1,4-benzodioxin-5-yl)carbonyl]-1H-pyrazol-3-yl)-1,2-dihydropyridin-2-one]", "values": [
      {"measurement": "IC50", "result": "< 100", "unit": "nM"}
    ]},
    {"smiles": "O=c1c(-c2cc(NCc3ccc(Cl)s3)[nH]n2)cccn1Cc1cccc(Cl)c1", "note": "[Cmpd 34, 1-[(3-chlorophenyl)methyl]-3-(5-[(5-chlorothiophen-2-yl)methyl]amino-1H-pyrazol-3-yl)-1,2-dihydropyridin-2-one]", "values": [
      {"measurement": "IC50", "result": "1000 to 10000", "unit": "nM"}
    ]},
    {"smiles": "O=C(c1ccco1)n1nc(-c2cccn(Cc3cccs3)c2=O)cc1NCc1ccc(Cl)s1", "note": "[Cmpd 168, 3-(5-[(5-chlorothiophen-2-yl)methyl]amino-1-[(furan-2-yl)carbonyl]-1H-pyrazol-3-yl)-1-(thiophen-2-ylmethyl)-1,2-dihydropyridin-2-one]", "values": [
      {"measurement": "IC50", "result": "< 100", "unit": "nM"}
    ]},
    {"smiles": "COc1ccccc1C(=O)n1nc(-c2cccn(CC#N)c2=O)cc1NCc1ccc(Cl)s1", "note": "[Cmpd 57, 2-[3-(5-[(5-chlorothiophen-2-yl)methyl]amino-1-[(2-methoxyphenyl)carbonyl]-1H-pyrazol-3-yl)-2-oxo-1,2-dihydropyridin-1-yl]acetonitrile]", "values": [
      {"measurement": "IC50", "result": "< 100", "unit": "nM"}
    ]},
    {"smiles": "O=c1c(-c2cc(NCc3ccc(Cl)s3)n[nH]2)cccn1Cc1cccs1", "note": "[Cmpd 231, 3-(5-[(5-chlorothiophen-2-yl)methyl]amino-1H-pyrazol-3-yl)-1-(thiophen-2-ylmethyl)-1,2-dihydropyridin-2-one]", "values": [
      {"measurement": "IC50", "result": "1000 to 10000", "unit": "nM"}
    ]},
    {"smiles": "N#CCn1cccc(-c2cc(NCc3ccc(Cl)s3)[nH]n2)c1=O", "note": "[Cmpd 60, 2-[3-(5-[(5-chlorothiophen-2-yl)methyl]amino-1H-pyrazol-3-yl)-2-oxo-1,2-dihydropyridin-1-yl]acetonitrile]", "values": [
      {"measurement": "IC50", "result": "10000 to 100000", "unit": "nM"}
    ]},
    {"smiles": "O=c1c(-c2cc(NCc3ccc(Cl)s3)[nH]n2)cccn1Cc1ccco1", "note": "[Cmpd 222, 3-(5-[(5-chlorothiophen-2-yl)methyl]amino-1H-pyrazol-3-yl)-1-(furan-2-ylmethyl)-1,2-dihydropyridin-2-one]", "values": [
      {"measurement": "IC50", "result": "> 100000", "unit": "nM"}
    ]},
    {"smiles": "COc1ccccc1C(=O)n1nc(-c2cccn(Cc3ccco3)c2=O)cc1NCc1ccc(Cl)s1", "note": "[Cmpd 135, 3-(5-[(5-chlorothiophen-2-yl)methyl]amino-1-[(2-methoxyphenyl)carbonyl]-1H-pyrazol-3-yl)-1-(furan-2-ylmethyl)-1,2-dihydropyridin-2-one]", "values": [
      {"measurement": "IC50", "result": "< 100", "unit": "nM"}
    ]},
    {"smiles": "O=C(c1cccc2c1OCCO2)n1nc(-c2cccn(Cc3ccncc3)c2=O)cc1NCc1ccc(Cl)s1", "note": "[Cmpd 115, 3-(5-[(5-chlorothiophen-2-yl)methyl]amino-1-[(2,3-dihydro-1,4-benzodioxin-5-yl)carbonyl]-1H-pyrazol-3-yl)-1-(pyridin-4-ylmethyl)-1,2-dihydropyridin-2-one]", "values": [
      {"measurement": "IC50", "result": "< 100", "unit": "nM"}
    ]},
    {"smiles": "COCCOc1ccc(C(=O)n2nc(-c3ccc[nH]c3=O)cc2NCc2ccc(Cl)s2)cc1", "note": "[Cmpd 206, 3-(5-[(5-chlorothiophen-2-yl)methyl]amino-1-[4-(2-methoxyethoxy)phenyl]carbonyl-1H-pyrazol-3-yl)-1,2-dihydropyridin-2-one]", "values": [
      {"measurement": "IC50", "result": "< 100", "unit": "nM"}
    ]},
    {"smiles": "O=C(c1ccoc1)n1nc(-c2cccn(Cc3ccc4ccccc4c3)c2=O)cc1NCc1ccc(Cl)s1", "note": "[Cmpd 175, 3-(5-[(5-chlorothiophen-2-yl)methyl]amino-1-[(furan-3-yl)carbonyl]-1H-pyrazol-3-yl)-1-(naphthalen-2-ylmethyl)-1,2-dihydropyridin-2-one]", "values": [
      {"measurement": "IC50", "result": "< 100", "unit": "nM"}
    ]},
    {"smiles": "O=c1c(-c2cc(NCc3ccc(Cl)s3)[nH]n2)cccn1Cc1ccc2ccccc2c1", "note": "[Cmpd 225, 3-(5-[(5-chlorothiophen-2-yl)methyl]amino-1H-pyrazol-3-yl)-1-(naphthalen-2-ylmethyl)-1,2-dihydropyridin-2-one]", "values": [
      {"measurement": "IC50", "result": "> 100000", "unit": "nM"}
    ]},
    {"smiles": "O=C(c1ccco1)n1nc(-c2cccn(CCN3CCOCC3)c2=O)cc1NCc1ccc(Cl)s1", "note": "[Cmpd 170, 3-(5-[(5-chlorothiophen-2-yl)methyl]amino-1-[(furan-2-yl)carbonyl]-1H-pyrazol-3-yl)-1-[2-(morpholin-4-yl)ethyl]-1,2-dihydropyridin-2-one]", "values": [
      {"measurement": "IC50", "result": "> 100000", "unit": "nM"}
    ]},
    {"smiles": "CC(C)(C)C(=O)n1nc(-c2cccn(Cc3ccoc3)c2=O)cc1NCc1ccc(Cl)s1", "note": "[Cmpd 78, 3-(5-[(5-chlorothiophen-2-yl)methyl]amino-1-(2,2-dimethylpropanoyl)-1H-pyrazol-3-yl)-1-(furan-3-ylmethyl)-1,2-dihydropyridin-2-one]", "values": [
      {"measurement": "IC50", "result": "< 100", "unit": "nM"}
    ]},
    {"smiles": "O=C(c1ccccc1Cl)n1nc(-c2cccn(CCN3CCOCC3)c2=O)cc1NCc1ccc(Cl)s1", "note": "[Cmpd 252, 3-1-[(2-chlorophenyl)carbonyl]-5-[(5-chlorothiophen-2-yl)methyl]amino-1H-pyrazol-3-yl-1-[2-(morpholin-4-yl)ethyl]-1,2-dihydropyridin-2-one]", "values": [
      {"measurement": "IC50", "result": "< 100", "unit": "nM"}
    ]},
    {"smiles": "COCCn1cccc(-c2cc(NCc3ccc(Cl)s3)n(C(=O)c3ccoc3)n2)c1=O", "note": "[Cmpd 171, 3-(5-[(5-chlorothiophen-2-yl)methyl]amino-1-[(furan-3-yl)carbonyl]-1H-pyrazol-3-yl)-1-(2-methoxyethyl)-1,2-dihydropyridin-2-one]", "values": [
      {"measurement": "IC50", "result": "> 100000", "unit": "nM"}
    ]},
    {"smiles": "O=C(c1ccco1)n1nc(-c2cccn(Cc3ccncc3)c2=O)cc1NCc1ccc(Cl)s1", "note": "[Cmpd 166, 3-(5-[(5-chlorothiophen-2-yl)methyl]amino-1-[(furan-2-yl)carbonyl]-1H-pyrazol-3-yl)-1-(pyridin-4-ylmethyl)-1,2-dihydropyridin-2-one]", "values": [
      {"measurement": "IC50", "result": "< 100", "unit": "nM"}
    ]},
    {"smiles": "CN(C)c1cc(-c2ccc[nH]c2=O)nn1C(=O)c1ccco1", "note": "[Cmpd 239, 3-[5-(dimethylamino)-1-[(furan-2-yl)carbonyl]-1H-pyrazol-3-yl]-1,2-dihydropyridin-2-one]", "values": [
      {"measurement": "IC50", "result": "> 100000", "unit": "nM"}
    ]},
    {"smiles": "COc1ccccc1C(=O)n1nc(-c2cccn(Cc3ccoc3)c2=O)cc1NCc1ccc(Cl)s1", "note": "[Cmpd 136, 3-(5-[(5-chlorothiophen-2-yl)methyl]amino-1-[(2-methoxyphenyl)carbonyl]-1H-pyrazol-3-yl)-1-(furan-3-ylmethyl)-1,2-dihydropyridin-2-one]", "values": [
      {"measurement": "IC50", "result": "< 100", "unit": "nM"}
    ]},
    {"smiles": "O=C(c1ccsc1)n1nc(-c2cccn(Cc3ccco3)c2=O)cc1NCc1ccc(Cl)s1", "note": "[Cmpd 195, 3-(5-[(5-chlorothiophen-2-yl)methyl]amino-1-[(thiophen-3-yl)carbonyl]-1H-pyrazol-3-yl)-1-(furan-2-ylmethyl)-1,2-dihydropyridin-2-one]", "values": [
      {"measurement": "IC50", "result": "< 100", "unit": "nM"}
    ]},
    {"smiles": "O=C(c1ccsc1)n1nc(-c2cccn(Cc3cccs3)c2=O)cc1NCc1ccc(Cl)s1", "note": "[Cmpd 202, 3-(5-[(5-chlorothiophen-2-yl)methyl]amino-1-[(thiophen-3-yl)carbonyl]-1H-pyrazol-3-yl)-1-(thiophen-2-ylmethyl)-1,2-dihydropyridin-2-one]", "values": [
      {"measurement": "IC50", "result": "< 100", "unit": "nM"}
    ]},
    {"smiles": "O=C(c1ccco1)n1nc(-c2cccn(Cc3cccnc3)c2=O)cc1NCc1ccc(Cl)s1", "note": "[Cmpd 165, 3-(5-[(5-chlorothiophen-2-yl)methyl]amino-1-[(furan-2-yl)carbonyl]-1H-pyrazol-3-yl)-1-(pyridin-3-ylmethyl)-1,2-dihydropyridin-2-one]", "values": [
      {"measurement": "IC50", "result": "< 100", "unit": "nM"}
    ]},
    {"smiles": "CC1(C(=O)n2nc(-c3cccn(Cc4cccnn4)c3=O)cc2NCc2ccc(Cl)s2)CCOCC1", "note": "[Cmpd 152, 3-(5-[(5-chlorothiophen-2-yl)methyl]amino-1-[(4-methyloxan-4-yl)carbonyl]-1H-pyrazol-3-yl)-1-(pyridazin-3-ylmethyl)-1,2-dihydropyridin-2-one]", "values": [
      {"measurement": "IC50", "result": "< 100", "unit": "nM"}
    ]},
    {"smiles": "O=C(c1cccc2c1OCCO2)n1nc(-c2cccn(CCN3CCOCC3)c2=O)cc1NCc1ccc(Cl)s1", "note": "[Cmpd 119, 3-(5-[(5-chlorothiophen-2-yl)methyl]amino-1-[(2,3-dihydro-1,4-benzodioxin-5-yl)carbonyl]-1H-pyrazol-3-yl)-1-[2-(morpholin-4-yl)ethyl]-1,2-dihydropyridin-2-one]", "values": [
      {"measurement": "IC50", "result": "< 100", "unit": "nM"}
    ]},
    {"smiles": "CC(C)(C)C(=O)n1nc(-c2cccn(Cc3ccccn3)c2=O)cc1NCc1ccc(Cl)s1", "note": "[Cmpd 82, 3-(5-[(5-chlorothiophen-2-yl)methyl]amino-1-(2,2-dimethylpropanoyl)-1H-pyrazol-3-yl)-1-(pyridin-2-ylmethyl)-1,2-dihydropyridin-2-one]", "values": [
      {"measurement": "IC50", "result": "< 100", "unit": "nM"}
    ]},
    {"smiles": "COc1ccc(C(=O)n2nc(-c3cccn(Cc4ccsc4)c3=O)cc2NCc2ccc(Cl)s2)c(OC)c1", "note": "[Cmpd 130, 3-(5-[(5-chlorothiophen-2-yl)methyl]amino-1-[(2,4-dimethoxyphenyl)carbonyl]-1H-pyrazol-3-yl)-1-(thiophen-3-ylmethyl)-1,2-dihydropyridin-2-one]", "values": [
      {"measurement": "IC50", "result": "< 100", "unit": "nM"}
    ]},
    {"smiles": "O=c1c(-c2cc(NCc3ccc(Cl)s3)[nH]n2)cccn1Cc1cccc2ccccc12", "note": "[Cmpd 224, 3-(5-[(5-chlorothiophen-2-yl)methyl]amino-1H-pyrazol-3-yl)-1-(naphthalen-1-ylmethyl)-1,2-dihydropyridin-2-one]", "values": [
      {"measurement": "IC50", "result": "> 100000", "unit": "nM"}
    ]},
    {"smiles": "COc1ccccc1C(=O)n1nc(-c2cccn(CCN3CCOCC3)c2=O)cc1NCc1ccc(Cl)s1", "note": "[Cmpd 146, 3-(5-[(5-chlorothiophen-2-yl)methyl]amino-1-[(2-methoxyphenyl)carbonyl]-1H-pyrazol-3-yl)-1-[2-(morpholin-4-yl)ethyl]-1,2-dihydropyridin-2-one]", "values": [
      {"measurement": "IC50", "result": "< 100", "unit": "nM"}
    ]},
    {"smiles": "COc1ccccc1C(=O)n1nc(-c2cccn(Cc3cccs3)c2=O)cc1NCc1ccc(Cl)s1", "note": "[Cmpd 143, 3-(5-[(5-chlorothiophen-2-yl)methyl]amino-1-[(2-methoxyphenyl)carbonyl]-1H-pyrazol-3-yl)-1-(thiophen-2-ylmethyl)-1,2-dihydropyridin-2-one]", "values": [
      {"measurement": "IC50", "result": "< 100", "unit": "nM"}
    ]}
  ]
}
